Earlier results in patent US11103503B2, “Pharmaceutical compositions of Lurasidone” (SLAYBACK PHARMA LLC, priority 2019, dated 2021).

How the values were obtained:
[1] = fed state

In the case of O=C1[C@@H]2[C@H]3CC[C@H](C3)[C@@H]2C(=O)N1C[C@@H]1CCCC[C@H]1CN1CCN(c2nsc3ccccc23)CC1 [Lurasidone, N-4-4-(1,2-benzisothiazol-3-yl)-1-piperazinyl-(2R,3R)-2,3-tetramethylene-butyl-(1R,2S,3R,4'S)-2,3-bicyclo[2.2.1]heptanedicarboxyimide], the solubility in water is given as “very slightly soluble” and the administered dose absorbed [1] is given as 9-19%.
